In ChEMBL document CHEMBL1201862, “PubChem BioAssay data set” (2004):
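Where inhibition never reached the appropriate level, the endpoint shown equals the highest concentration tested. Otherwise, values were interpolated linearly from a five-concentration, 48-hour dose response in 96-well plates. At the GI50, growth is halved.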 The source made the active and inactive calls. Rule as the data show it: active = GI50 up to about 1.1 µM and inactive = higher.

Columns and labels:
Test in all cases: NCI-60 cell line screen, 48 h
UACC-62 = system: UACC-62
RPMI-8226 = system: RPMI-8226
COLO 205 = system: COLO 205
ACHN = system: ACHN
NCI-H226 = system: NCI-H226
A549 = system: A549
HT-29 = system: HT-29
HCT-116 = system: HCT-116
786-0 = system: 786-0
HCC 2998 = system: HCC 2998
HOP-18 = system: HOP-18
IGROV-1 = system: IGROV-1
HCT-15 = system: HCT-15
NCI-H460 = system: NCI-H460
SK-MEL-28 = system: SK-MEL-28
SW-620 = system: SW-620
MOLT-4 = system: MOLT-4
SK-MEL-2 = system: SK-MEL-2
CCRF-CEM = system: CCRF-CEM
HOP-62 = system: HOP-62
HL-60 = system: HL-60
SK-OV-3 = system: SK-OV-3
SN12C = system: SN12C
U-251 = system: U-251
SF-295 = system: SF-295
DMS-273 = system: DMS-273
SNB-75 = system: SNB-75
OVCAR-5 = system: OVCAR-5
EKVX = system: EKVX
SNB-78 = system: SNB-78
RXF 393 = system: RXF 393
SNB-19 = system: SNB-19
UACC-257 = system: UACC-257
HOP-92 = system: HOP-92
LXFL 529 = system: LXFL 529
TK-10 = system: TK-10
Malme-3M = system: Malme-3M
LOX IMVI = system: LOX IMVI
OVCAR-3 = system: OVCAR-3
NCI-H23 = system: NCI-H23
SR = system: SR
SF-268 = system: SF-268
UO-31 = system: UO-31
OVCAR-8 = system: OVCAR-8
M19-MEL = system: M19-MEL
XF498 = system: XF498
SF-539 = system: SF-539
DLD-1 = system: DLD-1
KM-20L2 = system: KM-20L2
A498 = system: A498
CAKI-1 = system: CAKI-1
NCI-H522 = system: NCI-H522
K562 = system: K562
KM12 = system: KM12
OVCAR-4 = system: OVCAR-4
DMS-114 = system: DMS-114
M14 = system: M14
SK-MEL-5 = system: SK-MEL-5

SMILES: Cc1cc2c(C)n(Cc3ccccc3Cl)nc2c(C(=O)O)c1C
- GI50 (UACC-62): > 100 µM (inactive)
- GI50 (RPMI-8226): > 100 µM (inactive)
- GI50 (COLO 205): > 10 µM (inactive)
- GI50 (ACHN): > 100 µM (inactive)
- GI50 (NCI-H226): > 100 µM (inactive)
- GI50 (A549): > 100 µM (inactive)
- GI50 (HT-29): > 100 µM (inactive)
- GI50 (HCT-116): > 100 µM (inactive)
- GI50 (786-0): > 100 µM (inactive)
- GI50 (HCC 2998): > 100 µM (inactive)
- GI50 (HOP-18): > 100 µM (inactive)
- GI50 (IGROV-1): > 100 µM (inactive)
- GI50 (HCT-15): > 100 µM
- GI50 (NCI-H460): > 100 µM (inactive)
- GI50 (SK-MEL-28): > 100 µM (inactive)
- GI50 (SW-620): > 100 µM (inactive)
- GI50 (MOLT-4): > 100 µM (inactive)
- GI50 (SK-MEL-2): > 100 µM (inactive)
- GI50 (CCRF-CEM): > 100 µM (inactive)
- GI50 (HOP-62): > 100 µM (inactive)
- GI50 (HL-60): > 100 µM (inactive)
- GI50 (SK-OV-3): > 100 µM (inactive)
- GI50 (SN12C): > 100 µM (inactive)
- GI50 (U-251): > 100 µM (inactive)
- GI50 (SF-295): > 100 µM (inactive)
- GI50 (DMS-273): > 100 µM (inactive)
- GI50 (SNB-75): > 100 µM (inactive)
- GI50 (OVCAR-5): > 100 µM (inactive)
- GI50 (EKVX): > 100 µM (inactive)
- GI50 (SNB-78): > 100 µM (inactive)
- GI50 (RXF 393): > 100 µM (inactive)
- GI50 (SNB-19): > 100 µM (inactive)
- GI50 (UACC-257): > 100 µM (inactive)
- GI50 (HOP-92): > 100 µM (inactive)
- GI50 (LXFL 529): > 100 µM (inactive)
- GI50 (TK-10): > 100 µM (inactive)
- GI50 (Malme-3M): > 100 µM (inactive)
- GI50 (LOX IMVI): > 100 µM (inactive)
- GI50 (OVCAR-3): > 100 µM (inactive)
- GI50 (NCI-H23): > 100 µM (inactive)
- GI50 (SR): > 100 µM (inactive)
- GI50 (SF-268): > 100 µM (inactive)
- GI50 (UO-31): > 100 µM (inactive)
- GI50 (OVCAR-8): > 100 µM (inactive)
- GI50 (M19-MEL): > 100 µM (inactive)
- GI50 (XF498): > 100 µM (inactive)
- GI50 (SF-539): > 100 µM (inactive)
- GI50 (DLD-1): > 100 µM (inactive)
- GI50 (KM-20L2): > 100 µM (inactive)

SMILES: Cc1nc(C(N)=S)sc1C(=O)CC(=O)C(=O)Nc1c(C(C)C)cccc1C(C)C
- GI50 (UACC-62): 42.5 µM (inactive)
- GI50 (A498): 71 µM (inactive)
- GI50 (RPMI-8226): 55.8 µM (inactive)
- GI50 (COLO 205): 43.3 µM (inactive)
- GI50 (ACHN): 81.5 µM (inactive)
- GI50 (CAKI-1): 42.1 µM (inactive)
- GI50 (NCI-H226): 41.4 µM (inactive)
- GI50 (A549): 35.8 µM (inactive)
- GI50 (HT-29): 37.3 µM (inactive)
- GI50 (HCT-116): 38.7 µM (inactive)
- GI50 (786-0): 50.4 µM (inactive)
- GI50 (HCC 2998): 43.3 µM (inactive)
- GI50 (HOP-18): 35.9 µM (inactive)
- GI50 (IGROV-1): 61.4 µM (inactive)
- GI50 (HCT-15): 32.6 µM
- GI50 (NCI-H460): 40.5 µM (inactive)
- GI50 (SK-MEL-28): > 100 µM (inactive)
- GI50 (SW-620): 48.9 µM (inactive)
- GI50 (MOLT-4): 41 µM (inactive)
- GI50 (SK-MEL-2): 65.5 µM (inactive)
- GI50 (CCRF-CEM): 44.7 µM (inactive)
- GI50 (NCI-H522): 18 µM (inactive)
- GI50 (HOP-62): 86.9 µM (inactive)
- GI50 (HL-60): 28 µM (inactive)
- GI50 (K562): 24.3 µM (inactive)
- GI50 (SK-OV-3): 36 µM (inactive)
- GI50 (SN12C): 56.8 µM (inactive)
- GI50 (U-251): 36.6 µM (inactive)
- GI50 (SF-295): 29.2 µM (inactive)
- GI50 (KM12): 40.7 µM (inactive)
- GI50 (SNB-75): 25.2 µM (inactive)
- GI50 (OVCAR-4): > 100 µM (inactive)
- GI50 (OVCAR-5): > 100 µM (inactive)
- GI50 (DMS-114): 26.7 µM (inactive)
- GI50 (EKVX): > 100 µM (inactive)
- GI50 (SNB-78): 66.2 µM (inactive)
- GI50 (RXF 393): 20.3 µM (inactive)
- GI50 (SNB-19): 45.8 µM (inactive)
- GI50 (M14): 35.2 µM (inactive)
- GI50 (UACC-257): 60.4 µM (inactive)
- GI50 (HOP-92): 26.9 µM (inactive)
- GI50 (LXFL 529): 52 µM (inactive)
- GI50 (TK-10): > 100 µM (inactive)
- GI50 (Malme-3M): 39.2 µM (inactive)
- GI50 (LOX IMVI): 49.3 µM (inactive)
- GI50 (OVCAR-3): 18.3 µM (inactive)
- GI50 (NCI-H23): 30.1 µM (inactive)
- GI50 (SR): 26.4 µM (inactive)
- GI50 (SF-268): > 100 µM (inactive)
- GI50 (UO-31): 39.3 µM (inactive)
- GI50 (OVCAR-8): 36 µM (inactive)
- GI50 (M19-MEL): 34.1 µM (inactive)
- GI50 (XF498): 24.5 µM (inactive)
- GI50 (SF-539): 44.4 µM (inactive)
- GI50 (DLD-1): 55.2 µM (inactive)
- GI50 (KM-20L2): 41.3 µM (inactive)
- GI50 (SK-MEL-5): 54.6 µM (inactive)
